Measurements taken from patent US20230146533A1, “KERATIN BD-10, PREPARATION METHOD THEREFOR AND PHARMACEUTICAL COMPOSITION AND USE THEREOF” (INSTITUTE OF MATERIA MEDICA, CHINESE ACADEMY OF MEDICAL …, priority 2019, published 2023).
Structures can show the parent of a compound that is named as a salt. Marks after values point to notes of the source that are not given here.

What was measured:
[1] = system: mice cough induced by ammonia water; assay: Antitussive test, cough induced by ammonia water in mice; assay type: in vivo, ICR mice
Procedure: Animals: male ICR mice; Drugs and reagents: dextromethorphan hydrobromide, ammonia water, 0.2% CMC-Na, protein BD-10; Apparatus: Compressed nebulizer (403T type), balance (XS105DU type). Experiment grouping: • Solvent control group; • Dextromethorphan 15 mg/kg group; • Protein BD-10, 20 mg/kg group, 50 mg/kg group.
Dextromethorphan and different doses of protein BD-10 (administration volume 10 ml/kg) were given orally in groups, and the solvent control group was given the same volume of distilled water. One hour later, mice were put into a sealed box and atomized 10% ammonia water for 10 seconds, and then observed and recorded the incubation period of cough in mice and the number of coughs in 2 minutes.
Record the time point of oral administration, the time point of atomization experiment, the incubation period of mice cough and the number of coughs within 2 minutes, respectively. The incubation period of cough refers to the number of seconds from the start of the atomization of ammonia to the occurrence of cough. The performance of coughing in mice is based on contraction of their abdominal muscles (breast contraction) and opening their mouths at the same time. Calculate the mean and standard error of each group of data, and use TTEST to compare the model group with other groups, and P<0.05 is considered as a significant difference.

[2] = system: PLO-induced epilepsy in mice; assay: Pilocarpine (PLO) induced convulsive epilepsy in mice; assay type: in vivo, ICR mice; design: mortality rate: unit not given here; details: Diazepam 2 mg/kg, PLO 225 mg/kg i.p.
Procedure: Animals: male ICR mice; Drugs: Pilocarpine HCl (PLO, pilocarpine, pilocarpine hydrochloride), Diazepam (diazepam tablets), protein BD-10.
Experiment grouping: • Model group: • Diazepam 2 mg/kg group; • Protein BD-10, 50 mg/kg group, 200 mg/kg group.
The drug was administered once in the afternoon the day before modeling, PLO-225 mg/kg (modeling agent) was injected intraperitoneally 1 hour after the test drug was administered intragastrically on the day of modeling. And positive drug can be administered once 20 minutes before modeling. Observe for 30 minutes after PLO injection.
Observation indicators: (1)Seizure situation: the time of seizures from Grade II to Grade IV; (2)the time to death.
(§1) Seizure grade: Refer to Racine grading standard: Grade 0: No response; Grade I: manifested as twitching of facial muscles or the corners of the mouth; Grade II: can nod; Grade III: twitching of one limb; Grade IV: rigidity or body twitching; Grade V: generalized epilepsy (generalized tonic seizures).
Count the number of Grade IV seizures and deaths in each group of mice in the experiment; Grade II, III and IV incubation period. […] Chi-square test was used for statistics of the number of cases. The mean value and standard error of the incubation period were calculated, and TTEST was used to compare the model group with other groups. P<0.05 was considered as a significant difference.

[3] = system: PTZ-induced epilepsy in mice; assay: Pentylenetetrazole (PTZ) induced epilepsy in mice; assay type: in vivo, ICR mice; details: Retigabine 60 mg/kg, PTZ 65 mg/kg i.p.
Procedure: Medicines: Pentylenetetrazol (PTZ), Retigabine, Protein BD-10.
Experiment grouping: • Model group; • Retigabine 60 mg/kg group; • Protein BD-10, 50 mg/kg group, 200 mg/kg group;
The drug was administered once in the afternoon the day before modeling, On the day of modeling, PTZ-65 mg/kg (modeling agent) was injected intraperitoneal 1 hour after the test drug was administered intragastrically, and the positive drug can be administered once half an hour before modeling. Continue to observe for 15 minutes after injection of PTZ.
Observation index: (1)Seizure situation: the time of seizures from Grade III to Grade VI; (2)Death situation
as §1
Count the cases of seizures and deaths in each group of mice in the experiment; Grade III and IV incubation period. The incubation period of mice that have not attacked to Grade IV is recorded as the maximum of 900 seconds. Chi-square test was used for statistics of the number of cases. Calculate the mean and standard error of the incubation period. Use TTEST to compare the model group with other groups, and P<0.05 is considered as a significant difference.

[4] = system: lipopolysaccharide (LPS) induced fever in SD rats; assay: Lipopolysaccharide (LPS) induced fever model in SD rats; assay type: in vivo; details: aspirin 300 mg/kg oral
Procedure: Animals: 230-260 grams of male SD rats; Drugs: lipopolysaccharide (LPS, SIGMA L-2880), aspirin (SIGMA A2093), protein BD-10; Instruments: electronic balance (SARTORIUS BP121S type), electronic clinical thermometer (CITIZEN CT-513W type).
Method: the method of intraperitoneal injection of Lipopolysaccharide to replicate rat fever model.
(§2) Preparation of experimental animals: After the experimental animals adapt to the experimental environment (temperature 22° C.±2° C., relative humidity 50%±2%) for 1 day. Pre-adaptation to measure rectal temperature at 8:00 and 15:00, rats were fasted and water was taken freely 12 h before experiment, and let the animal to empty its feces before measuring the rectal temperature. Apply petroleum jelly to the electronic thermometer probe before each temperature measurement. Insert the rat rectum 2 cm (can be marked at 2 cm to ensure that the depth of each insertion is consistent), and record the body temperature after the reading is stable.
Intraperitoneal injection of lipopolysaccharide to replicate rat fever model: The body temperature of the rats was measured before modeling. Qualified rats with a body temperature of 36.2-37.3° C. were selected and randomly divided into groups with 8 rats in each group. After oral administration of aspirin and different doses of protein BD-10, lipopolysaccharide (20 μg/kg, 2 ml/kg) was injected intraperitoneally immediately, and the normal control group was injected intraperitoneally with an equal volume of normal saline. The body temperatures of the rats were monitored after 2 hours for a total of 8 hours.
(§3) According to the body temperature measured at each time point on the day of the experiment, calculate the mean, standard deviation and standard error of the body temperature of each group of rats. The data of each group was compared with TTEST, and P<0.05 was considered as a significant difference.

[5] = system: yeast-induced fever model in rats; assay: Yeast-induced fever model in SD rats; assay type: in vivo; details: aspirin 300 mg/kg oral
Procedure: Animals: 230-260 grams of male SD rats; Medicines: yeast (OXOID LP0021), aspirin (SIGMA A2093), protein BD-10; Instruments: electronic balance (SARTORIUS BP121S type), electronic clinical thermometer (CITIZEN CT-513W type). Experiment grouping: • Normal control group; • Model group: yeast fever model; • Positive control group: Aspirin 300 mg/kg group; • Protein BD-10, 10 mg/kg group, 50 mg/kg group.
as §2
Subcutaneous injection of dry yeast to replicate rat fever model: The body temperature of the rats was measured before modeling. Qualified rats with a body temperature of 36.2-37.3° C. were selected and randomly divided into groups with 8 rats in each group. After oral administration of aspirin and different doses of protein BD-10, 20% yeast suspension (10 ml/kg) was injected subcutaneously immediately, and the normal control group was injected intraperitoneally with an equal volume of normal saline. The body temperatures of the rats were monitored after 2 hours for a total of 8 hours.
as §3

[6] = system: acetic acid writhing of ICR mice; assay: Acetic acid writhing test in ICR mice; assay type: in vivo
Procedure: Animals: male ICR mice; Drugs and reagents: aspirin, physiological saline, glacial acetic acid, protein BD-10. Experiment grouping: • Model group; • Aspirin 300 mg/kg group; • Protein BD-10, 50 mg/kg group, 200 mg/kg group.
One day after the experimental animals adapt to the environment, Aspirin 300 mg/kg, protein BD-10 50 mg/kg, 200 mg/kg were given orally one hour in advance, and the administration volume was 10 ml/kg; Then, 0.6% acetic acid solution was injected intraperitoneally, and the incubation period (seconds) and frequency of writhing in the animal was observed within 15 minutes.
Calculate the mean and standard error of the data in each group. Compared with the model group by TTEST, P<0.05 was considered as statistically different.

[7] = 2, 4, 6 and 8 hours after modeling, vs model group P<0.05
[8] = 20% yeast suspension 10 ml/kg s.c., SD rats
[9] = aspirin 300 mg/kg oral one hour before 0.6% acetic acid i.p., observed within 15 minutes

In the case of `COc1ccc2c(c1)[C@]13CCCC[C@@H]1[C@H](C2)N(C)CC3` [Dextromethorphan, dextromethorphan hydrobromide, reference compound], the “Incubation period (cough)” value ([1]; Dextromethorphan 15 mg/kg oral, 10% ammonia water atomized 10 seconds one hour later, X ± SEM) was 38.4 ± 4.5 s, the Number of coughs ([1]; Dextromethorphan 15 mg/kg oral, 10% ammonia water atomized 10 seconds one hour later, coughs within 2 minutes, X ± SEM) was 34.0 ± 2.9 and the “Effect on incubation period and number of coughs (in words)” value ([1]; dextromethorphan 15 mg/kg group, vs solvent control group P<0.05) was “significant improvement”.
In the case of `CN1C(=O)CN=C(c2ccccc2)c2cc(Cl)ccc21` [Diazepam, reference compound], the “Grade IV seizure rate” value ([2]; 10 mice) was 0** %, the mortality rate ([2]; 10 mice) was 0 and the “Grade II seizure incubation period” value ([2]; mean ± SEM) was 109 ± 8 s. The “Grade III seizure incubation period” value ([2]; mean ± SEM) was 182 ± 14 s, the “Grade IV seizure incubation period” value ([2]; mean ± SEM, mice not reaching Grade IV recorded as maximum 1800 seconds) was 1800 ± 0 s and the Cases of deaths ([2]; of 10 mice) was 0. For the same compound, the “Cases of Grade IV” value ([2]; of 10 mice, 30 minutes observation) was 0**.
For `CCOC(=O)Nc1ccc(NCc2ccc(F)cc2)cc1N` [Retigabine, reference compound], the “Grade IV seizure rate” value ([3]; 10 mice) was 20%**, the mortality rate ([3]; 10 mice) was 0% and the “Grade III seizure incubation period” value ([3]; mean ± SEM) was 83 ± 7 s. The “Grade IV seizure incubation period” value ([3]; mean ± SEM, mice not reaching Grade IV recorded as maximum 900 seconds) was 745 ± 103 s, the Cases of deaths ([3]; of 10 mice) was 0 and the “Cases of Grade IV” value ([3]; of 10 mice, 15 minutes observation) was 2**.
With `CC(=O)Oc1ccccc1C(=O)O` [aspirin, reference compound] the “Effect on body temperature of model rats (in words)” value [4, 7] was “can effectively inhibit the increase in body temperature”, the “Body temperature 2 hours after modeling” value ([4]; LPS 20 μg/kg i.p., SD rats) was 36.8 ± 0.1 °C and the “Body temperature 4 hours after modeling” value ([4]; LPS 20 μg/kg i.p., SD rats) was 36.9 ± 0.2 °C. For the same compound, the “Body temperature 6 hours after modeling” value ([4]; LPS 20 μg/kg i.p., SD rats) was 36.8 ± 0.2 °C, the “Body temperature 8 hours after modeling” value ([4]; LPS 20 μg/kg i.p., SD rats) was 36.9 ± 0.1 °C and the “Effect on body temperature of model rats (in words)” value [5, 7] was “can effectively inhibit the increase in body temperature”. The “Body temperature 2 hours after modeling” value [5, 8] was 37.0 ± 0.1 °C, the “Body temperature 4 hours after modeling” value [5, 8] was 37.0 ± 0.1 °C and the “Body temperature 6 hours after modeling” value [5, 8] was 37.0 ± 0.1 °C. The “Body temperature 8 hours after modeling” value [5, 8] was 37.0 ± 0.1 °C, the “Effect on writhing incubation period and times of writhing (in words)” value ([6]; Aspirin 300 mg/kg, vs model group P<0.05) was “can significantly delay the incubation period of writhing and reduce the times of writhing” and the Frequency of writhing [6, 9] was 15.2 ± 2.9 times. The Writhing incubation period [6, 9] was 290.3 ± 37.0 s.
